Results on 16 compounds are retold here after patent US5714516A, “Anti-viral agents” (priority 1992, dated 1998).

The subject of series [1] is Varicella zoster virus (VZV). In words: VZV plaque reduction assay in Mewo cells. It is filed as cell-based, varicella zoster virus (VZV) strain H-551. The following applies: for Inhibition of VZV (in words): Example 1, 2 to 200 μM. As to the method: (§1) The assay system used was the Mewo cell plaque reduction assay of VZV, C. Grose and P. A. Brunell, Infection & Immunity, 19, 199-203 (1978). […] Compounds were tested at levels from 2 to 200 μM.
(§2) The VZV plaque assay of Example 1 was repeated using a variety of myristic acid analogues. Briefly, sub-confluent Mewo monolayers (Grose and Brunell, 1978, supra) in 24 well plates were infected with approximately 40 P.F.U. (Plaque Forming Units) of cell-free varicella zoster virus (VZV) strain H-551. After an adsorption period of 2 hours the cells were overlaid with 750 μl of MEM (Minimum Essential Medium (Eagle)) supplemented with 2% fetal calf serum and 1% non-essential amino acids. The anti-viral compounds to be tested were solubilized in ethanol, added to final concentrations of 0, 2, 20 or 200 μM and the wells then overlaid with a further 750 μl of MEM supplemented with 2% fetal calf serum, 1% non-essential amino acids and 0.3% agarose. Mock infected wells were also included as controls to test for cytotoxicity. All plates were incubated at 32° C. with 5% CO2. Eight days post infection the monolayers were fixed in 4% formaldehyde and stained with crystal violet.
(§3) The effect of 2-hydroxymyristic acid (2-HM) on VZV or HIV when solubilized in a variety of solvents was observed using the methods approved for the Medical Research Council AIDS Directed Programme as described in H. C. Holmes et al., Antiviral Chem. & Chemother. (1991), 2(5), 287-293, using concentrations of 2 HM from 0.08to 1000 μM. Additionally, back titration assays of HIV were carried out by adding supernatants from treated infected cells to uninfected C8166 cells at increasing dilutions. Assays were scored by recording the presence or absence of syncytium formation.
(§4) Preparation and assay of VZV was carried out as described previously in Examples 1 and 3.
Stocks of 2-HM were prepared from crystalline solid by dissolving in ethanol or in dimethyl sulphoxide (DMSO) to a concentration of 20 mM to 100 mM, and were stored at -20° C. prior to addition to culture media.
A general note: In a plaque reduction assay, fewer plaques than in the control indicate reduced infectivity or spread.

In series [2] the test system is Mewo cells. Description: in vitro. Set-up: Toxicity in Mewo Cells: key to the marks not given beside the values. As to the method:
as §1, §2, §4

In series [3] the test system is HIV. The note with it: Saermark et al.; Bryant et al.; cited from earlier work.
Series [4] concerns MRC5 monolayer. Description: Total protein synthesis by incorporation of 35S methionine in infected MRC5 cells (cytotoxicity). It is filed as cell-based. As to the method: (§5) Cytotoxicity was assessed by the incorporation of radiolabelled precursors to assay protein synthesis and myristoylation in the infected cell.
Series [5] can be described thus: Crystallisation from aqueous solution / medium. It is filed as physicochemical.
For series [6], the system named is VZV viral antigen synthesis. In words: Synthesis of VZV viral antigen assayed by immunoblotting in infected MRC5 cells. It is filed as cell-based, Varicella zoster virus (VZV). As to the method: In order to characterise the nature of the antiviral effect, the effect of 2-hydroxymyristic acid on the synthesis of viral antigen was assayed by immunoblotting.
A general note: A western blot detects proteins with antibodies after separation by electrophoresis.

The test system of series [7] is C8166 cells. In words: Cytotoxicity to C8166 cells in HIV assays. It is filed as cell-based. The note with it: St. Bartholomew's and Mill Hill; only above levels at which 2-HM would crystallise from aqueous solution. As to the method:
as §3
(§6) The HIV assays were performed at three of the MRC approved laboratories (Mill Hill, Cambridge and St. Bartholomew's Hospital).
(§7) Stocks of 2-HM were prepared from crystalline solid by dissolving in ethanol or in dimethyl sulphoxide (DMSO) to a concentration of 20 mM to 100 mM, and were stored at -20° C. prior to addition to culture media. Concentrations of 2-HM greater than 80 to 100 μM are imprecise, since 2-HM crystallises from aqueous solutions at such levels.

Series [8] is described as follows: Cytotoxicity to C8166 cells in HIV assays. It is filed as cell-based. The following applies: human, c8166 cells, Table 2. As to the method:
as §3, §6, §7

Series [9] can be described thus: in vitro. Also noted: Toxicity in Mewo Cells: key to the marks not given beside the values. The note with it: human, mewo cells. As to the method:
as §1, §2, §4

Series [10] deals with HIV. Description: HIV antigen assay. It is filed as cell-based. The note with it: for IC50: Human immunodeficiency virus 1, Table 2. As to the method:
as §3, §6, §7

The test system of series [11] is HIV. Description: HIV virus titration (back titration, syncytium formation in C8166 cells). The following applies: Human immunodeficiency virus 1, C8166; Table 2; Ethanol; Mill Hill. It is filed as cell-based. As to the method:
as §3, §6, §7

Series [12] has as its system myristoylation. In words: Myristoylation in the infected cell by incorporation of radiolabelled precursors. Type of series: cell-based. The following applies: 0.1 to 10×IC50. As to the method:
as §5

Setting [13] is: Human alphaherpesvirus 3, MeWo, 192 h, Table 1, Example 3, solubilized in ethanol, 0, 2, 20 or 200 μM, eight days post infection, Mewo cells, read-out: IC50 Against VZV.
Setting [14] is: Table 1, Example 3, solubilized in ethanol, 0, 2, 20 or 200 μM, eight days post infection, Mewo cells.
The mark [15] stands for this setting: Human alphaherpesvirus 3, MeWo, 192 h, read-out: IC50 Against VZV (μM).
The mark [16] stands for this setting: Table 1, Example 3, solubilized in ethanol, 0, 2, 20 or 200 μM, eight days post infection, Mewo cells, read-out: IC50 Against VZV.

Values after ≈ are worked out from the molar mass of the structure shown. “Also recorded” adds a separate entry of the source. Read-outs that look alike come from different tables or passages of the source.

For `CCCCNCCCCCCCCC(=O)O` [9-(butylamino)nonanoic acid, reference compound], the IC50 in series [1] (setting [13]) was 164 µM.
Turning to `CCCCCCCCCCCCCC(=O)NCC(OCC)OCC` [N-myristoylglycinaldiethylacetal (GoA), N-myristoylglycinaldiethylacetal, reference compound], the “Inhibition of VZV (in words)” value in [1] is “did not cause 50% inhibition of virus at any concentration tested”. The “IC50 Against VZV (μM)” value in series [1] (setting [14]) is reported as “unobtainable”.
On to `COCCCCCCCCCCCC(=O)O` [12-(methyloxy)dodecanoic acid, reference compound], for which the IC50 in series [1] (setting [15]) is 17.3 µM.
With `CCSCCCCCCCCCCC(=O)O` [11-(ethylthio)undecanoic acid, reference compound], the “IC50 Against VZV (μM)” value in [1] (setting [14]) is on record as “unobtainable”.
For `CCCCCCCCCCCCCC(=O)NC` [myristoylmethylamide, reference compound], the IC50 in series [1] (setting [13]) was found to be 56.6 µM.
For the compound `CCCCCCCCCCCCC(O)C(=O)O` (single isomer, unassigned) [2-hydroxytetradecanoic acid (+)], the IC50 in series [1] (setting [16]) stood at 48.7 µM. Also, the “Cytotoxicity in the assay (in words)” value in series [2] is listed as “failed to be cytotoxic”.
Regarding `CCCCCCCCCCCCCCC(Br)C(=O)O` (stereo not drawn) [2-bromopalmitic acid], the IC50 in [1] (setting [15]) worked out at 0.89 µM. In addition, in series [2] (Example 3, at 200 μM), the “Toxic at 200 μM (in words)” value is reported as “toxic at 200 μM”. Also, the “Toxicity in Mewo Cells” value in series [2] (Table 1, Example 3, 0, 2, 20 or 200 μM, eight days post infection) is reported as “+++”.
In the case of `CCNCCCCCCCCCCC(=O)O` [11-(ethylamino)undecanoic acid, reference compound], the “IC50 Against VZV (μM)” value in [1] (setting [14]) is recorded as “unobtainable”.
Turning to `CCCCCCCCCCCCC(Br)C(=O)O` (stereo not drawn) [2-bromotetradecanoic acid, reference compound], the IC50 in [1] (setting [13]) is 14.8 µM.
With `CCCCCCCCCC(OCC)C(=O)O` (stereo not drawn) [2-(ethyloxy)undecanoic acid, reference compound], in series [1] (setting [13]), the IC50 is 14.4 µM.
With `COCCCCCCCCCCCC(=O)O` [13-oxamyristic acid], the “Inhibition of HIV release from infected cells (in words)” value in series [3] is “effective”.
For `CCCCCCCCCCCCC(N=[N+]=[N-])C(=O)O` (stereo not drawn) [2-azidotetradecanoic acid, reference compound], in [1] (setting [14]), the “IC50 Against VZV (μM)” value is “unobtainable”.
With `O=C(O)C1CO1` (stereo not drawn) [glycidic acid, reference compound], in [1] (setting [13]), the IC50 turned out to be 4.5 µM.
For the compound `CCCCCCCCCCCCCCC(O)C(=O)O` (stereo not drawn) [2-hydroxypalmitic acid], in [1] (setting [13]), the IC50 is 14.2 µM.
With `CCCCCCCCCCCCC(O)C(=O)O` (single isomer, unassigned) [2-hydroxytetradecanoic acid (-)], in [1] (setting [16]), the IC50 was 11.5 µM. Also, the “Cytotoxicity in the assay (in words)” value in [2] is “failed to be cytotoxic”.
With `CCCCCCCCCCCCC(O)C(=O)O` (racemic) [2-hydroxymyristic acid], the “Total protein synthesis (35S methionine incorporation)” value in series [4] (1:4 inoculum, 0.1 to 10×IC50) is “unaffected at any concentration tested”. Further, in [4] (up to ten times greater than the IC50), the “Cellular toxicity (in words)” value was “not toxic to cells; also recorded: without producing significant cellular toxicity”. The solubility in [5] (aqueous solution, aqueous solutions, read-out: Concentration above which 2-HM crystallises from aqueous solutions) was 80 to 100 µM (≈ 19.5 to 24.4 µg/mL). Further, the Crystalline deposits entry in series [5] (at the highest concentration, VZV plaque assay) is given as “crystalline deposits were observed”. Besides, in series [6] (MRC5 monolayers, suggested by results), the “Effect on syncytium formation” value is given as “inhibit syncytium formation”. In addition, the “Reduction in viral antigen synthesis” value in series [6] (inoculum one infected to four uninfected cells, three days post-infection, 80 μM (10×IC50)) is reported as “no reduction in antigen synthesis was apparent”. For the same compound, the “Inhibition of viral antigen synthesis at reduced inoculum” value in series [6] (reduced initial inoculum, harvest time increased, inversely proportional to inoculum) is listed as “inhibition was apparent”. The “Toxicity to C8166 cells (in words)” value in series [7] is recorded as “toxicity of 2-HM to C8166 cells was detected”. Besides, the CC50 in [8] (DMSO, St. Bartholomew's, read-out: TC50, HIV antigen assay) was over 400 µM; in [8] (Ethanol, Mill Hill, antigen assay, read-out: TC50, HIV antigen assay) it was 192 µM; in series [8] (Ethanol, Mill Hill, virus titration, read-out: TC50, HIV virus titration) it was 192 µM; in series [8] (Ethanol, St. Bartholomew's, read-out: TC50, HIV antigen assay), 168 µM; in [2] (human, mewo cells), over 200 µM; in [9], over 200 µM. Also, the “Inhibition of VZV (in words)” value in series [1] is “showed inhibition at 20 and 200 μM”. Besides, the IC50 in series [1] (Human alphaherpesvirus 3, MeWo, 8 μM lower end to 33 μM upper end, read-out: Range of IC50 against VZV over Examples) is 8 to 33 µM; in series [1] (setting [13]), 21.5 µM; in [1] (Human alphaherpesvirus 3, MeWo, Table 2, DMSO, St. Bartholomew's, read-out: IC50, VZV plaque reduction) it was over 200 µM; in [1] (Human alphaherpesvirus 3, MeWo, Table 2, Ethanol, St. Bartholomew's, read-out: IC50, VZV plaque reduction) it was 33.1 µM; in series [1] (Human alphaherpesvirus 3, MeWo, read-out: 50% inhibitory concentration (IC50), VZV plaque reduction), 8 µM; in [10] (DMSO, St. Bartholomew's) it was 220 µM. Besides, the IC50 was determined as 2 µM in series [10] (Ethanol, Mill Hill); 31.4 µM in series [10] (Ethanol, St. Bartholomew's); 3.9 µM in series [11]. In series [1] (solubilised in DMSO), the “Anti-viral effect against VZV (in words)” value was “no significant anti-viral effect”. In addition, in series [1] (solubilised in ethanol, St. Bartholomew's Hospital), the “Inhibition of VZV replication (in words)” value is “inhibits the replication”. Also, the “Cytotoxicity in the assay (in words)” value in series [2] was “failed to be cytotoxic”. In series [10] (ethanol as the solvent, St. Bartholomew's Hospital), the “Anti-viral effect against HIV on re-test (in words)” value was “a clear anti-viral effect was apparent”. In addition, the “Anti-viral effect against HIV (in words)” value in series [10] (solubilised in DMSO, St. Bartholomew's Hospital) is recorded as “lack of any significant anti-viral effect”. In addition, in series [10] (solubilised in ethanol, Mill Hill), the “Inhibition of HIV replication (in words)” value was “inhibits the replication”. In addition, the Inhibition of myristoylation entry in [12] is given as “non-specific inhibition of myristoylation”.
